Values after ≈ are worked out from the molar mass of the structure shown.
Assays:
[1] = test system: Staphylococcus epidermidis; test: Bactericidal activity against methicillin-resistant Staphylococcus epidermidis isolate 469/11 after 24 hrs; type: functional; details: isolate 469/11, 24 h, read-out: MBC99.9
[2] = test system: Staphylococcus epidermidis; test: Antimicrobial activity against methicillin-resistant Staphylococcus epidermidis isolate 459/11 after 18 hrs by twofold serial broth dilution method; type: functional; details: isolate 459/11, 18 h
[3] = test system: Staphylococcus epidermidis; test: Bactericidal activity against methicillin-resistant Staphylococcus epidermidis isolate 403/10 after 24 hrs; type: functional; details: isolate 403/10, 24 h, read-out: MBC99.9
[4] = test system: Staphylococcus epidermidis; test: Bactericidal activity against methicillin-resistant Staphylococcus epidermidis isolate 409/10 after 24 hrs; type: functional; details: isolate 409/10, 24 h, read-out: MBC99.9
[5] = test system: Staphylococcus epidermidis; test: Antimicrobial activity against methicillin-resistant Staphylococcus epidermidis isolate 470/11 after 18 hrs by twofold serial broth dilution method; type: functional; details: isolate 470/11, 18 h
Pseudomonas aeruginosa [6] = test: Bactericidal activity against Pseudomonas aeruginosa NCTC 6749 after 24 hrs; type: functional; details: NCTC 6749, 24 h, read-out: MBC99.9
[7] = test system: Staphylococcus epidermidis; test: Bactericidal activity against methicillin-resistant Staphylococcus epidermidis isolate 424/10 after 24 hrs; type: functional; details: isolate 424/10, 24 h, read-out: MBC99.9
[8] = test system: Staphylococcus epidermidis; test: Bactericidal activity against methicillin-resistant Staphylococcus epidermidis isolate 404/10 after 24 hrs; type: functional; details: isolate 404/10, 24 h, read-out: MBC99.9
Bacillus anthracis = test: Antimicrobial activity against Bacillus anthracis 34F2 after 18 hrs by twofold serial broth dilution method; type: functional; details: 34F2, 18 h
Pseudomonas aeruginosa [9] = test: Antimicrobial activity against Pseudomonas aeruginosa NCTC 6749 after 18 hrs by twofold serial broth dilution method; type: functional; details: NCTC 6749, 18 h
[10] = test system: Staphylococcus epidermidis; test: Antimicrobial activity against Staphylococcus epidermidis ATCC 12228 after 18 hrs by twofold serial broth dilution method; type: functional; details: ATCC 12228, 18 h
Staphylococcus aureus [11] = test: Antimicrobial activity against Staphylococcus aureus […] after 18 hrs by twofold serial broth dilution method; type: functional
[12] = test system: Staphylococcus epidermidis; test: Bactericidal activity against Staphylococcus epidermidis ATCC 12228 after 24 hrs; type: functional; details: ATCC 12228, 24 h, read-out: MBC99.9
Staphylococcus aureus [13] = test: Antimicrobial activity against Staphylococcus aureus ATCC 6538 after 18 hrs by twofold serial broth dilution method; type: functional; details: ATCC 6538, 18 h
[14] = test system: Staphylococcus epidermidis; test: Bactericidal activity against methicillin-resistant Staphylococcus epidermidis isolate 458/11 after 24 hrs; type: functional; details: isolate 458/11, 24 h, read-out: MBC99.9
[15] = test system: Staphylococcus epidermidis; test: Antimicrobial activity against methicillin-resistant Staphylococcus epidermidis isolate 469/11 after 18 hrs by twofold serial broth dilution method; type: functional; details: isolate 469/11, 18 h
[16] = test system: Staphylococcus epidermidis; test: Antimicrobial activity against methicillin-resistant Staphylococcus epidermidis isolate 461/11 after 18 hrs by twofold serial broth dilution method; type: functional; details: isolate 461/11, 18 h
[17] = test system: Staphylococcus epidermidis; test: Bactericidal activity against methicillin-resistant Staphylococcus epidermidis isolate 457/11 after 24 hrs; type: functional; details: isolate 457/11, 24 h, read-out: MBC99.9
[18] = test system: Staphylococcus epidermidis; test: Antimicrobial activity against methicillin-resistant Staphylococcus epidermidis isolate 403/10 after 18 hrs by twofold serial broth dilution method; type: functional; details: isolate 403/10, 18 h
Staphylococcus aureus [19] = test: Antimicrobial activity against Staphylococcus aureus ATCC 25923 after 18 hrs by twofold serial broth dilution method; type: functional; details: ATCC 25923, 18 h
[20] = test system: Staphylococcus epidermidis; test: Bactericidal activity against methicillin-resistant Staphylococcus epidermidis isolate 405/10 after 24 hrs; type: functional; details: isolate 405/10, 24 h, read-out: MBC99.9
[21] = test system: Staphylococcus epidermidis; test: Antimicrobial activity against methicillin-resistant Staphylococcus epidermidis isolate 409/10 after 18 hrs by twofold serial broth dilution method; type: functional; details: isolate 409/10, 18 h
Staphylococcus aureus [22] = test: Bactericidal activity against Staphylococcus aureus NCTC 4163 after 24 hrs; type: functional; details: NCTC 4163, 24 h, read-out: MBC99.9
Staphylococcus aureus [23] = test: Bactericidal activity against Staphylococcus aureus […] after 24 hrs; type: functional; details: read-out: MBC99.9
Pseudomonas aeruginosa [24] = test: Bactericidal activity against Pseudomonas aeruginosa ATCC 27853 after 24 hrs; type: functional; details: ATCC 27853, 24 h, read-out: MBC99.9
[25] = test system: Staphylococcus epidermidis; test: Antimicrobial activity against methicillin-resistant Staphylococcus epidermidis isolate 458/11 after 18 hrs by twofold serial broth dilution method; type: functional; details: isolate 458/11, 18 h
[26] = test system: Staphylococcus epidermidis; test: Bactericidal activity against Staphylococcus epidermidis ATCC 35984 after 24 hrs; type: functional; details: ATCC 35984, 24 h, read-out: MBC99.9
Escherichia coli [27] = test: Bactericidal activity against Escherichia coli ATCC 10538 after 24 hrs; type: functional; details: ATCC 10538, 24 h, read-out: MBC99.9
[28] = test system: Staphylococcus epidermidis; test: Antimicrobial activity against methicillin-resistant Staphylococcus epidermidis isolate 455/11 after 18 hrs by twofold serial broth dilution method; type: functional; details: isolate 455/11, 18 h
Bacillus subtilis = test: Genotoxicity in rec-positive Bacillus subtilis H17 at 2 ug/9 mm disc after 24 hrs by disc diffusion method; type: toxicity, organism-based
Staphylococcus aureus [29] = test: Bactericidal activity against Staphylococcus aureus ATCC 6538 after 24 hrs; type: functional; details: ATCC 6538, 24 h, read-out: MBC99.9
[30] = test system: Staphylococcus epidermidis; test: Bactericidal activity against methicillin-resistant Staphylococcus epidermidis isolate 422/10 after 24 hrs; type: functional; details: isolate 422/10, 24 h, read-out: MBC99.9
[31] = test system: Staphylococcus epidermidis; test: Bactericidal activity against methicillin-resistant Staphylococcus epidermidis isolate 454/11 after 24 hrs; type: functional; details: isolate 454/11, 24 h, read-out: MBC99.9
[32] = test system: Staphylococcus epidermidis; test: Bactericidal activity against methicillin-resistant Staphylococcus epidermidis isolate 459/11 after 24 hrs; type: functional; details: isolate 459/11, 24 h, read-out: MBC99.9
[33] = test system: Staphylococcus epidermidis; test: Bactericidal activity against methicillin-resistant Staphylococcus epidermidis isolate 407/10 after 24 hrs; type: functional; details: isolate 407/10, 24 h, read-out: MBC99.9
[34] = test system: Staphylococcus epidermidis; test: Bactericidal activity against methicillin-resistant Staphylococcus epidermidis isolate 461/11 after 24 hrs; type: functional; details: isolate 461/11, 24 h, read-out: MBC99.9
Escherichia coli [35] = test: Antimicrobial activity against Escherichia coli NCTC 8196 after 18 hrs by twofold serial broth dilution method; type: functional; details: NCTC 8196, 18 h
[36] = test system: Staphylococcus epidermidis; test: Antimicrobial activity against methicillin-resistant Staphylococcus epidermidis isolate 457/11 after 18 hrs by twofold serial broth dilution method; type: functional; details: isolate 457/11, 18 h
[37] = test system: Staphylococcus epidermidis; test: Antimicrobial activity against methicillin-resistant Staphylococcus epidermidis isolate 454/11 after 18 hrs by twofold serial broth dilution method; type: functional; details: isolate 454/11, 18 h
[38] = test system: Staphylococcus epidermidis; test: Bactericidal activity against methicillin-resistant Staphylococcus epidermidis isolate 460/11 after 24 hrs; type: functional; details: isolate 460/11, 24 h, read-out: MBC99.9
Pseudomonas aeruginosa [39] = test: Antimicrobial activity against Pseudomonas aeruginosa ATCC 15442 after 18 hrs by twofold serial broth dilution method; type: functional; details: ATCC 15442, 18 h
[40] = test system: Staphylococcus epidermidis; test: Antimicrobial activity against methicillin-resistant Staphylococcus epidermidis isolate 424/10 after 18 hrs by twofold serial broth dilution method; type: functional; details: isolate 424/10, 18 h
Escherichia coli [41] = test: Bactericidal activity against Escherichia coli NCTC 8196 after 24 hrs; type: functional; details: NCTC 8196, 24 h, read-out: MBC99.9

Compound: CC[C@@H](C(=O)[C@@H](C)[C@@H](O)[C@H](C)[C@@H]1O[C@@H]([C@@H](CC)C(=O)N2CCNCC2)CC[C@@H]1C)[C@H]1O[C@]2(C=C[C@@H](O)[C@]3(CC[C@@](C)([C@H]4CC[C@](O)(CC)[C@H](C)O4)O3)O2)[C@H](C)C[C@@H]1C
- MBC [1]: > 256 µg/mL
- MIC [2]: 64 µg/mL (≈ 78.1 µM)
- MBC [3]: > 256 µg/mL
- MBC [4]: > 256 µg/mL
- MIC [5]: 256 µg/mL (≈ 313 µM)
- MBC (Pseudomonas aeruginosa [6]): > 256 µg/mL
- MBC [7]: > 256 µg/mL
- MBC [8]: 256 µg/mL (≈ 313 µM)
- MIC (Bacillus anthracis): 64 µg/mL (≈ 78.1 µM)
- MIC (Pseudomonas aeruginosa [9]): > 256 µg/mL
- MIC [10]: 128 µg/mL (≈ 156 µM)
- MIC (Staphylococcus aureus [11]): 128 µg/mL (≈ 156 µM)
- MBC [12]: > 256 µg/mL
- MIC (Staphylococcus aureus [13]): 64 µg/mL (≈ 78.1 µM)
- MBC [14]: > 256 µg/mL
- MIC [15]: 128 µg/mL (≈ 156 µM)
- MIC [16]: 256 µg/mL (≈ 313 µM)
- MBC [17]: > 256 µg/mL
- MIC [18]: 128 µg/mL (≈ 156 µM)
- MIC (Staphylococcus aureus [19]): 128 µg/mL (≈ 156 µM)
- MBC [20]: > 256 µg/mL
- MIC [21]: 128 µg/mL (≈ 156 µM)
- MBC (Staphylococcus aureus [22]): > 256 µg/mL
- MBC (Staphylococcus aureus [23]): > 256 µg/mL
- MBC (Pseudomonas aeruginosa [24]): > 256 µg/mL
- MIC [25]: 128 µg/mL (≈ 156 µM)
- MBC [26]: > 256 µg/mL
- MBC (Escherichia coli [27]): > 256 µg/mL
- MIC [28]: 256 µg/mL (≈ 313 µM)
- diameter of the inhibition zone (DIZ) (Bacillus subtilis): 14 mm
- MBC (Staphylococcus aureus [29]): > 256 µg/mL
- MBC [30]: > 256 µg/mL
- MBC [31]: > 256 µg/mL
- MBC [32]: > 256 µg/mL
- MBC [33]: > 256 µg/mL
- MBC [34]: > 256 µg/mL
- MIC (Escherichia coli [35]): > 256 µg/mL
- MIC [36]: 256 µg/mL (≈ 313 µM)
- MIC [37]: 128 µg/mL (≈ 156 µM)
- MBC [38]: > 256 µg/mL
- MIC (Pseudomonas aeruginosa [39]): > 256 µg/mL
- MIC [40]: 64 µg/mL (≈ 78.1 µM)
- MBC (Escherichia coli [41]): > 256 µg/mL

Source: ChEMBL document CHEMBL3400015, “Tertiary amides of Salinomycin: A new group of antibacterial agents against Bacillus anthracis and methicillin-resistant Staphylococcus epidermidis” (Bioorg Med Chem Lett, 2015)
